We go through one compound from patent publication US6841570B2, “Materials and methods for controlling wood-boring insects” (priority 2002, dated 2005).

For test [1], the system named is Reticultiermes flavipes. Put plainly: Toxicity tests of nepetalactone on treated filter paper in petri dishes. In kind it is in vivo. The note with it: filter paper treated with acetone solutions; strengths 5.35%, 0.535%, 0.0535%, 0.000004%. Here is the method:
Materials: Reticultiermes flavipes, from the family Rhinotermitidae, the most common subterranean termites, were collected for toxicity tests, nepetalactone was obtained by commercial purchase (Kooky Kat Catnip Co., B.C.). For repellency assays, a donated amount of nepetalactone was provided from Iowa State University, courtesy of Dr. Joel Coates. Bioassays: Acetone was used as solvent for nepetalactone and control (permethrin). Absorbent (Fisherbrand) coarse, filter paper was treated with nepetalactone and controls and placed in standard, sterile polystyrene 100×15 mm petri dishes. Reticultierme flavipes (20 per replication) were placed in petri dishes and location monitored at 6 ten minute intervals. Toxicity tests: Toxicity tests of nepetalactone were conducted to determine non-lethal percentage for repellency assays. Permethrin (0.1%) solutions served as known control. Four strengths of nepetalactone were measured: 5.35%, 0.535%, 0.0535%, and 0.000004%. Based on the evident mortality, 0.0535% nepetalactone was selected as the repellency test solution.

Test [2] has as its system Reticultiermes flavipes. Put plainly: Repellency tests, half-treated filter paper in petri dishes. It counts as in vivo. As to conditions: 0.0535% nepetalactone on half of the filter paper; six ten minute intervals. On the procedure:
Materials: Reticultiermes flavipes, from the family Rhinotermitidae, the most common subterranean termites, were collected for toxicity tests, nepetalactone was obtained by commercial purchase (Kooky Kat Catnip Co., B.C.). For repellency assays, a donated amount of nepetalactone was provided from Iowa State University, courtesy of Dr. Joel Coates. Bioassays: Acetone was used as solvent for nepetalactone and control (permethrin). Absorbent (Fisherbrand) coarse, filter paper was treated with nepetalactone and controls and placed in standard, sterile polystyrene 100×15 mm petri dishes. Reticultierme flavipes (20 per replication) were placed in petri dishes and location monitored at 6 ten minute intervals. Repellency tests: Eight trials each of 0.0535% nepetalactone, 0.1% permethrin, blank, and pure acetone solvent were ran to test repellency. Filter papers were cut in half with solvent on one half and treated side on the opposite half. […] Termites were measured on treated and untreated sides at six consecutive ten minute intervals. Percent repellency was calculated as follows: (# live termites−# live termites treated)/total #termites. Standard mean of the Error (SEM): SEM=(variance)^1/2[…].

“Also recorded” adds a separate entry of the source.

Turning to `CC1=COC(=O)C2C(C)CCC12` (centres unmarked) [nepetalactone, 5,6,7,7a-tetrahydro-4,7-dimethyl cyclopenta[c]pyran-1-(4aH)-one], the “toxic effect (mortality) to termites” value in the test on Reticultiermes flavipes [1] is recorded as “lethal to termites; also recorded: toxic effects”. Also, the “repellant effect on termites” value in the test on Reticultiermes flavipes [2] is “dramatic repellant effect; also recorded: clear repellant”.
